In ChEMBL document CHEMBL5303573, “Mapping human microbiome drug metabolism by gut bacteria and their genes” (Nature, 2019):
Non-standard residues stand in square brackets, D forms with d. Residues, ends and D or L forms follow the SMILES beside them. pGlu = O=C1CC[C@@H](C(=O)O)N1; Thz = O=C(O)[C@@H]1CSCN1

Experiments:
[1] = The drug is tested on Coprococcus comes strain: ATCC27758 for biotransformation. The drug concentrations were measured before and after a 12-h incubation by liquid-chromatography-coupled mass spectrometry (LC–MS); assay type: ADME; parameters: dose 2 uM, timepoint 0 vs 12 hours; settings: 2 µM
[2] = The drug is tested on Eubacterium ventriosum strain: ATCC27560 for biotransformation. The drug concentrations were measured before and after a 12-h incubation by liquid-chromatography-coupled mass spectrometry (LC–MS); assay type: ADME; parameters: dose 2 uM, timepoint 0 vs 12 hours; settings: 2 µM
[3] = akkermansia muciniphila, 12 h, 2 µM
Description: The drug is tested on Akkermansia muciniphila strain: ATCC BAA-835 for biotransformation. The drug concentrations were measured before and after a 12-h incubation by liquid-chromatography-coupled mass spectrometry (LC–MS)

[4] = anaerostipes sp., 12 h, 2 µM
Description: The drug is tested on Anaerostipes sp. strain: fecal isolate for biotransformation. The drug concentrations were measured before and after a 12-h incubation by liquid-chromatography-coupled mass spectrometry (LC–MS)

[5] = The drug is tested on Bacteroides uniformis strain: ATCC8492 for biotransformation. The drug concentrations were measured before and after a 12-h incubation by liquid-chromatography-coupled mass spectrometry (LC–MS); settings: 2 µM
[6] = The drug is tested on Bacteroides vulgatus strain: ATCC8482 for biotransformation. The drug concentrations were measured before and after a 12-h incubation by liquid-chromatography-coupled mass spectrometry (LC–MS); settings: phocaeicola vulgatus, 2 µM
[7] = The drug is tested on Blautia hansenii strain: DSM20583 for biotransformation. The drug concentrations were measured before and after a 12-h incubation by liquid-chromatography-coupled mass spectrometry (LC–MS); settings: 2 µM
[8] = The drug is tested on Bifidobacterium ruminantium strain: fecal isolate for biotransformation. The drug concentrations were measured before and after a 12-h incubation by liquid-chromatography-coupled mass spectrometry (LC–MS); settings: 2 µM
[9] = The drug is tested on Bacteroides fragilis strain: HMW615 for biotransformation. The drug concentrations were measured before and after a 12-h incubation by liquid-chromatography-coupled mass spectrometry (LC–MS); settings: 2 µM
[10] = The drug is tested on Alistipes indistinctus strain: DSM22520 for biotransformation. The drug concentrations were measured before and after a 12-h incubation by liquid-chromatography-coupled mass spectrometry (LC–MS); settings: 2 µM
[11] = The drug is tested on Dorea formicigenerans strain: ATCC27755 for biotransformation. The drug concentrations were measured before and after a 12-h incubation by liquid-chromatography-coupled mass spectrometry (LC–MS); settings: 2 µM
[12] = The drug is tested on Ruminococcus torques strain: ATCC27756 for biotransformation. The drug concentrations were measured before and after a 12-h incubation by liquid-chromatography-coupled mass spectrometry (LC–MS); assay type: ADME; parameters: dose 2 uM, timepoint 0 vs 12 hours; settings: 2 µM
[13] = The drug is tested on Enterococcus faecalis strain: V583 for biotransformation. The drug concentrations were measured before and after a 12-h incubation by liquid-chromatography-coupled mass spectrometry (LC–MS); settings: 2 µM
[14] = The drug is tested on Providencia rettgeri strain: DSM1131 for biotransformation. The drug concentrations were measured before and after a 12-h incubation by liquid-chromatography-coupled mass spectrometry (LC–MS); assay type: ADME; parameters: dose 2 uM, timepoint 0 vs 12 hours; settings: 2 µM
[15] = segatella copri, 12 h, 2 µM
Description: The drug is tested on Prevotella copri strain: DSM18205 for biotransformation. The drug concentrations were measured before and after a 12-h incubation by liquid-chromatography-coupled mass spectrometry (LC–MS)

[16] = The drug is tested on Bacteroides xylanisolvens strain: DSM18836 for biotransformation. The drug concentrations were measured before and after a 12-h incubation by liquid-chromatography-coupled mass spectrometry (LC–MS); settings: 2 µM
[17] = roseburia intestinalis, 12 h, 2 µM
Description: The drug is tested on Roseburia intestinalis strain: L1-82 for biotransformation. The drug concentrations were measured before and after a 12-h incubation by liquid-chromatography-coupled mass spectrometry (LC–MS)

[18] = The drug is tested on Ruminococcus lactaris strain: ATCC29176 for biotransformation. The drug concentrations were measured before and after a 12-h incubation by liquid-chromatography-coupled mass spectrometry (LC–MS); settings: 2 µM
[19] = The drug is tested on Odoribacter splanchnicus strain: fecal isolate for biotransformation. The drug concentrations were measured before and after a 12-h incubation by liquid-chromatography-coupled mass spectrometry (LC–MS); settings: 2 µM
[20] = The drug is tested on Clostridium sporogenes strain: ATCC15579 for biotransformation. The drug concentrations were measured before and after a 12-h incubation by liquid-chromatography-coupled mass spectrometry (LC–MS); settings: 2 µM

Compound	Bacterial Biotransformation [1]	Bacterial Biotransformation [2]	Bacterial Biotransformation [3]	Bacterial Biotransformation [4]	Bacterial Biotransformation [5]	Bacterial Biotransformation [6]	Bacterial Biotransformation [7]	Bacterial Biotransformation [8]	Bacterial Biotransformation [9]	Bacterial Biotransformation [10]	Bacterial Biotransformation [11]	Bacterial Biotransformation [12]	Bacterial Biotransformation [13]	Bacterial Biotransformation [14]	Bacterial Biotransformation [15]	Bacterial Biotransformation [16]	Bacterial Biotransformation [17]	Bacterial Biotransformation [18]	Bacterial Biotransformation [19]	Bacterial Biotransformation [20]
CCOc1ccccc1OCCN[C@H](C)Cc1ccc(OC)c(S(N)(=O)=O)c1.Cl [TAMSULOSIN HYDROCHLORIDE]	Compound NOT metabolized	Compound NOT metabolized	Compound NOT metabolized	Compound NOT metabolized	Compound NOT metabolized	Compound NOT metabolized	Compound NOT metabolized	Compound NOT metabolized	Compound NOT metabolized	Compound NOT metabolized	Compound NOT metabolized	Compound NOT metabolized	Compound NOT metabolized	Compound NOT metabolized	Compound NOT metabolized	Compound NOT metabolized	Compound NOT metabolized	Compound NOT metabolized	Compound NOT metabolized	–
CN(C)CCc1c[nH]c2ccc(Cn3cncn3)cc12.O=C(O)c1ccccc1 [RIZATRIPTAN BENZOATE]	Compound NOT metabolized	Compound NOT metabolized	Compound NOT metabolized	–	–	Compound NOT metabolized	Compound NOT metabolized	Compound NOT metabolized	Compound NOT metabolized	Compound NOT metabolized	Compound NOT metabolized	Compound NOT metabolized	Compound NOT metabolized	Compound NOT metabolized	Compound NOT metabolized	Compound NOT metabolized	Compound NOT metabolized	Compound NOT metabolized	–	–
CN1[C@@H]2CC[C@H]1C[C@@H](OC(=O)c1c[nH]c3ccccc13)C2 [TROPISETRON]	Compound NOT metabolized	Compound NOT metabolized	Compound NOT metabolized	Compound NOT metabolized	Compound NOT metabolized	Compound NOT metabolized	Compound NOT metabolized	Compound NOT metabolized	Compound NOT metabolized	Compound NOT metabolized	Compound NOT metabolized	Compound NOT metabolized	–	Compound NOT metabolized	Compound NOT metabolized	Compound NOT metabolized	Compound NOT metabolized	Compound NOT metabolized	Compound NOT metabolized	–
O=C([O-])C[C@H](O)C[C@H](O)/C=C/c1c(C2CC2)nc2ccccc2c1-c1ccc(F)cc1.O=C([O-])C[C@H](O)C[C@H](O)/C=C/c1c(C2CC2)nc2ccccc2c1-c1ccc(F)cc1.[Ca+2] [PITAVASTATIN CALCIUM]	Compound NOT metabolized	Compound NOT metabolized	Compound NOT metabolized	Compound NOT metabolized	Compound NOT metabolized	Compound NOT metabolized	Compound NOT metabolized	Compound NOT metabolized	Compound NOT metabolized	Compound NOT metabolized	Compound NOT metabolized	Compound NOT metabolized	–	Compound NOT metabolized	Compound NOT metabolized	Compound NOT metabolized	–	Compound NOT metabolized	Compound NOT metabolized	–
Cc1nc(-c2ccc(OCC(C)C)c(C#N)c2)sc1C(=O)O [FEBUXOSTAT]	Compound NOT metabolized	Compound NOT metabolized	–	Compound NOT metabolized	Compound metabolized	Compound metabolized	Compound NOT metabolized	Compound NOT metabolized	Compound NOT metabolized	Compound NOT metabolized	Compound NOT metabolized	Compound NOT metabolized	Compound NOT metabolized	–	–	Compound NOT metabolized	–	Compound metabolized	Compound metabolized	Compound NOT metabolized
O=C1CC[C@@H](C(=O)N2CSC[C@H]2C(=O)O)N1 [PIDOTIMOD] ([pGlu]-[Thz]-OH)	Compound NOT metabolized	Compound NOT metabolized	Compound NOT metabolized	Compound NOT metabolized	Compound metabolized	Compound NOT metabolized	Compound metabolized	Compound NOT metabolized	Compound metabolized	Compound NOT metabolized	Compound NOT metabolized	Compound NOT metabolized	Compound NOT metabolized	Compound NOT metabolized	Compound metabolized	–	Compound NOT metabolized	Compound NOT metabolized	Compound NOT metabolized	–
COC1=CC(=O)C[C@@H](C)[C@]12Oc1c(Cl)c(OC)cc(OC)c1C2=O [GRISEOFULVIN]	Compound NOT metabolized	Compound NOT metabolized	Compound metabolized	Compound NOT metabolized	Compound metabolized	Compound metabolized	Compound metabolized	Compound NOT metabolized	Compound metabolized	Compound NOT metabolized	Compound NOT metabolized	Compound NOT metabolized	Compound NOT metabolized	Compound NOT metabolized	Compound metabolized	Compound metabolized	–	–	–	–
